Experimental data: US20230331685A1, “HERBICIDAL COMPOUNDS AND METHODS OF USE THEREOF” (AG Plenus Ltd, priority 2020, published 2023)

How the values were obtained:
Assay type in all cases: in vivo
Eragrostis teff = test: HTPS pre-emergence application on monocot model plant
Protocol: The plates were placed in a controlled greenhouse in a random order inside a bath which allows flooding irrigation with tap water supplemented with a fertilizer. Applied compounds were dissolved into a final solution of 50% acetone, 49.9% DDW, 0.1% tween-20. A 96 well plate was used as a stock plate for preparing application solutions for 8 repeats. Each row contained different concentrations per chemical. Maximal concentration for application was 1.5 Kg/Ha and dilution factor is 2.5. Chemical application was performed one day after thinning out in a chemical hood. […] applied on first two true leaves in each well using 12 channel pipettes. Data collection: RGB (red, green, blue) data for green area per well was documented using camera. Data is collected at a few time points during the experiment: one day after thinning and before chemical application, two-, six- or nine-days post application. During the last two documentations, visual phenotyping was performed. Data analysis: Given RGB results and visual phenotype scores, a student t-test conducted to compare between treatment and control performance for continuous data (RGB) and Fisher exact test to analyze the non-continuous data (phenotypic scores). Dose-Response curves are generated for each treatment to infer ED50 and max. inhibition parameters, using treatment's log concentration range as the […] and normalized green area. […] Plate imaging performed at 11 and 18 DAA. RGB data for green area per well was documented and used to extract % inhibition. Dose-Response curves were built for each treatment to infer EC50, EC75 and EC90 parameters, using treatment's log concentration range as the independent variable and normalized green area as the dependent variable. Treatments were compared to controls performance given RGB results and using student's t-test (p-val≤0.05). Compounds 104-154 were applied in either or both pre- and post-emergence mode to either or both monocot and dicot model plants, following the methods described above. The compounds were applied as a gradient of concentrations as listed above, from which the ED50 was calculated.

Phalaris paradoxa [1] = test: LTP post-emergence greenhouse test; settings: Dosage 2000 g/ha
Alopecurus myosuroides [2] = test: LTP post-emergence greenhouse test; settings: Dosage 2000 g/ha
Setaria viridis [3] = test: LTP post-emergence greenhouse test; settings: Dosage 2000 g/ha
Eragrostis tef = test: LTP pre-emergence greenhouse test; settings: Dosage 2000 g/ha
Protocol: (§1) A basic panel of 8 weed species (Table 3) were sowed in 4×4×7 cm plastic pots containing inert sand (Sweet sand), intensively washed using osmosis water. Each specie was sowed in a separate pot. In each pot 10-15 seeds were sowed according to the specie viability. Sowing was performed one day before application. The plants were grown for 21 days in a controlled greenhouse (26±2° C. day 20±2° C. night). Hood irrigation (tap water+Shefer 5:3:8 8 mM) was given at a 50% water content by weight. Compounds were soluble in water (DDW), and commercial herbicide control was soluble in formulation B (Table 4). Application was conducted with an industrial sprayer (TeeJet 6502E nozzle) at a rate of 2 kg/ha and spray volume of […]. Pre-emergence advanced dose response experiment application was conducted at six rates between 1-0.0312 kg/ha and spray volume of […]. Percentage of emergence was evaluated at 15 DAA. Visual phenotyping was recorded using a scale of 0-6 (0: no visible effect, 6: maximum effect) at 18 DAA. All experiments included an untreated control, a solvent control and a positive control (commercial herbicide A.I.). […] Statistical analysis for plant emergence determined by % emergence ≥50 and T test (pval≤0.05), as well as Wilcox test (pval≤0.05).

Sinapis alba = test: LTP pre-emergence greenhouse test; settings: Dosage 2000 g/ha
Protocol: as §1

Matricaria chamomilla = test: LTP pre-emergence greenhouse test; settings: Dosage 2000 g/ha
Protocol: as §1

Phalaris paradoxa [4] = test: LTP pre-emergence greenhouse test; settings: Dosage 2000 g/ha
Protocol: as §1

Arabidopsis thaliana [5] = test: LTP pre-emergence greenhouse test; settings: Dosage 2000 g/ha
Protocol: as §1

Setaria viridis [6] = test: LTP pre-emergence greenhouse test; settings: Dosage 2000 g/ha
Protocol: as §1

Poa annua = test: LTP pre-emergence greenhouse test; settings: Dosage 2000 g/ha
Protocol: as §1

Abutilon theophrasti = test: LTP pre-emergence greenhouse test; settings: Dosage 2000 g/ha
Protocol: as §1

Alopecurus myosuroides [7] = test: LTP pre-emergence greenhouse test; settings: Dosage 2000 g/ha
Protocol: as §1

Ambrosia artemisiifolia = test: LTP pre-emergence greenhouse test; settings: Dosage 2000 g/ha
Protocol: as §1

Amaranthus palmeri = test: LTP pre-emergence greenhouse test; settings: Dosage 2000 g/ha
Protocol: as §1

Lolium perenne = test: LTP pre-emergence greenhouse test; settings: Dosage 2000 g/ha
Protocol: as §1

Arabidopsis thaliana [8] = test: HTPS post-emergence application on miniature dicot model plant
Protocol: The plates were placed in a controlled greenhouse in a random order inside a bath which allows flooding irrigation with tap water supplemented with a fertilizer. Applied compounds were dissolved into a final solution of 50% acetone, 49.9% DDW, 0.1% tween-20. A 96 well plate was used as a stock plate for preparing application solutions for 8 repeats. Each row contained different concentrations per chemical. Maximal concentration for application was 1.5 Kg/Ha and dilution factor is 2.5. Chemical application was performed one day after thinning out in a chemical hood. […] applied on first two true leaves in each well using 12 channel pipettes. Data collection: RGB (red, green, blue) data for green area per well was documented using camera. Data is collected at a few time points during the experiment: one day after thinning and before chemical application, two-, six- or nine-days post application. During the last two documentations, visual phenotyping was performed. Data analysis: Given RGB results and visual phenotype scores, a student t-test conducted to compare between treatment and control performance for continuous data (RGB) and Fisher exact test to analyze the non-continuous data (phenotypic scores). Dose-Response curves are generated for each treatment to infer ED50 and max. inhibition parameters, using treatment's log concentration range as the […] variable and normalized green area. Plate imaging performed at 11 and 18 DAA. RGB data for green area per well was documented and used to extract % inhibition. Dose-Response curves were built for each treatment to infer EC50, EC75 and EC90 parameters, using treatment's log concentration range as the independent variable and normalized green area as the dependent variable. Treatments were compared to controls performance given RGB results and using student's t-test (p-val≤0.05). Compounds 104-154 were applied in either or both pre- and post-emergence mode to either or both monocot and dicot model plants, following the methods described above. The compounds were applied as a gradient of concentrations as listed above, from which the ED50 was calculated.

[9] = system: monocot and eudicot weeds species; test: In-planta LTP weed panel, overall assessment; settings: monocot and eudicot weeds species; both post-emergence and pre-emergence; most of the species tested
[10] = dose-response of normalized green area

C[C@@H](O)[C@@H](N)CCCCC(=O)O [Compound 104, (6S,7R)-6-amino-7-hydroxyoctanoic acid]
ED50 (g/ha) (Eragrostis teff; [10]): 35 g/ha
Max Inhibition (%) (Eragrostis teff; green area (RGB)): 100%
Herbicidal activity (In-planta), LTP-Post emergence, Phalaris paradoxa (Phalaris paradoxa [1]): 80
Herbicidal activity (In-planta), LTP-Post emergence, Alopecurus myosuroides (Alopecurus myosuroides [2]): 95
Herbicidal activity (In-planta), LTP-Post emergence, Setaria viridis (Setaria viridis [3]): 90-95
Herbicidal activity (In-planta), LTP-Pre emergence, Eragrostis tef (Eragrostis tef): 100
Herbicidal activity (In-planta), LTP-Pre emergence, Sinapis alba (Sinapis alba): 40-60
Herbicidal activity (In-planta), LTP-Pre emergence, Matricaria chamomilla (Matricaria chamomilla): 80
Herbicidal activity (In-planta), LTP-Pre emergence, Phalaris paradoxa (Phalaris paradoxa [4]): 60
Herbicidal activity (In-planta), LTP-Pre emergence, Arabidopsis thaliana (Arabidopsis thaliana [5]): 40-80
Herbicidal activity (In-planta), LTP-Pre emergence, Setaria viridis (Setaria viridis [6]): 100
Herbicidal activity (In-planta), LTP-Pre emergence, Poa annua (Poa annua): 100
Herbicidal activity (In-planta), LTP-Pre emergence, Abutilon theophrasti (Abutilon theophrasti): 60-80
Herbicidal activity (In-planta), LTP-Pre emergence, Alopecurus myosuroides (Alopecurus myosuroides [7]): 40
Herbicidal activity (In-planta), LTP-Pre emergence, Ambrosia artemisiifolia (Ambrosia artemisiifolia): 0
Herbicidal activity (In-planta), LTP-Pre emergence, Amaranthus palmeri (Amaranthus palmeri): 80
Herbicidal activity (In-planta), LTP-Pre emergence, Lolium perenne (Lolium perenne): 80
Emax (Arabidopsis thaliana [8]; Arabidopsis thaliana, post-emergence, green area (RGB), read-out: Max Inhibition (%)): 100%
ED50 (g/ha) (Arabidopsis thaliana [8]; [10]): 0.2 g/ha
control of weeds (in words) [9]: excellent control
